In patent publication US6242455A, “Pyrimidin-2,4,6-trion derivatives, method for producing the same and medicinal products containing these compounds” (Roche Diagnostics GmbH, priority 1997, dated 2001):

Molecular target: T1, Angiotensin-converting enzyme from rabbit lung (Oryctolagus cuniculus, UniProt P12822)
T1 construct: purchased Fluka; host or cells: rabbit lung
T1 sequence (P12822 34-1310): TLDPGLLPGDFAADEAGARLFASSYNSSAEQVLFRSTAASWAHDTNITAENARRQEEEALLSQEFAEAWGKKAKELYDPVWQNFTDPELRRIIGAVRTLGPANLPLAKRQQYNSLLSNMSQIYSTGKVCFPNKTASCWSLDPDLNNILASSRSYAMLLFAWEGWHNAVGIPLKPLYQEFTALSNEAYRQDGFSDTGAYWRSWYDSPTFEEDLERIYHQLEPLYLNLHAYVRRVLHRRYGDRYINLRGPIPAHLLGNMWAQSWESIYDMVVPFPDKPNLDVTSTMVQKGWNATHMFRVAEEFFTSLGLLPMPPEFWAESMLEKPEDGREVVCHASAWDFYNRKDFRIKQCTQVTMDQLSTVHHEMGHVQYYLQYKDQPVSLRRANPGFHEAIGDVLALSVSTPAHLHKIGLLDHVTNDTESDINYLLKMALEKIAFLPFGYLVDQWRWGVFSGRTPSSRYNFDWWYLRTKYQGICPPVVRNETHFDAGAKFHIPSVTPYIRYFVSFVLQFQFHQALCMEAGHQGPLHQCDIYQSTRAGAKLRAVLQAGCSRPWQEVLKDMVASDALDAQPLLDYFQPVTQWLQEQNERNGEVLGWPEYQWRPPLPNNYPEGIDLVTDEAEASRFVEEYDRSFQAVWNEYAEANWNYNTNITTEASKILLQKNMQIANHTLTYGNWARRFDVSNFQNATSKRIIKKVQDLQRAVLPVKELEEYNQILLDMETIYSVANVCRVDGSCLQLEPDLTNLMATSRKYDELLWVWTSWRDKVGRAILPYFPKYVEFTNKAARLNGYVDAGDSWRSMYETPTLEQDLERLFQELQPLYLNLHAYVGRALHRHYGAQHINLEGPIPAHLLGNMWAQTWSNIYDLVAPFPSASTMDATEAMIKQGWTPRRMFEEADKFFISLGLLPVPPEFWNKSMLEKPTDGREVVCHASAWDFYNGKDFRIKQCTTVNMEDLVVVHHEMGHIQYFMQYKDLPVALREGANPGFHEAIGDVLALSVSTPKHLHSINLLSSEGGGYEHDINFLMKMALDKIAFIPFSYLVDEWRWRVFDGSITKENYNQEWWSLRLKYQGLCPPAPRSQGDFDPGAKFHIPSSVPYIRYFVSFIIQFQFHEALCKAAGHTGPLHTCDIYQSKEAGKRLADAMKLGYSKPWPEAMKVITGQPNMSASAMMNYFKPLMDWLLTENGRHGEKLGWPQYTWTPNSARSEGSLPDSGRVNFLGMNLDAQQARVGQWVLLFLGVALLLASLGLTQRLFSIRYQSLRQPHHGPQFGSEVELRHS
Assay: ACE-fluorescence assay for the determination of the IC50 value
Format: biochemical
Conditions: substrate Abz-Gly-Phe(NO2)-Pro 20 μM, pH 8.0, 36° C., inhibitor 0 to 100 μM
Source text: ACE-fluorescence assay for the determination of the IC50 value
Literature: Amos Carmel and Arieh Yaron, Eur. J. Biochem. […], 265-273 (1978). An Intramolecularly Quenched Fluorescent Tripeptide as a Fluorogenic Substrate of Angiotensin-I-Converting Enzyme and of Bacterial Dipeptidyl Carboxypeptidase.
Enzyme: Angiotensin-converting enzyme from rabbit lung (EC.3.4.15.1), Fluka (3.3 U/μg)
Substrate: Abz-Gly-Phe(NO2)-Pro, M-1100 Bachem
Assay buffer: 0.05 Tris-HCl
Excitation: 360 nm (excitation slit: 8 nm)
Emission: 410 nm (emission slit: 10 nm)
Substrate stock solution: […] in assay buffer
Enzyme stock solution: […] assay buffer
Inhibitor stock solution: 1 mM in DMSO diluted in assay buffer
Measuring cuvette: 50 μl substrate (yields 20 μM)
0 to 100 μl inhibitor stock solution […]
fill up remainder to 1 ml
Substrate, inhibitor and buffer are added together in a heated measuring cuvette and the enzyme reaction is started by addition of enzyme. The increase in fluorescence over time (200 s) is monitored in a time scan. The respective initial rate is determined from the increase.
The IC50 value can be determined as follows:
V0 =initial rate without inhibitor
[I]=inhibitor concentration

Question: How did the IC50 turn out when `CC(C)(C)C(C(=O)O)C(=O)NC1(c2ccccc2)C(=O)NC(=O)NC1=O` (stereo not shown) [Example 4, 3. 3-Dimethyl-2-(2,4,6-trioxo-5-phenyl-hexahydro-pyrimidin-5-ylcarbamoyl)-butyric acid] was run?
Answer: 159 µM
